Laboratory results from ChEMBL document CHEMBL5620362 (Eur J Med Chem, 2023).
Active and inactive are the calls of the source. The calls are words filed in the database; no cut-off is given here.

Assays:
[1] = biological target: T1, Nuclear receptor ROR-gamma (Homo sapiens, UniProt P51449); experiment: Binding affinity to CM5 chip-immobilized recombinant ROR-gamma LBD (unknown origin) assessed as dissociation constant by SPR analysis
T1 sequence (P51449 whole entry): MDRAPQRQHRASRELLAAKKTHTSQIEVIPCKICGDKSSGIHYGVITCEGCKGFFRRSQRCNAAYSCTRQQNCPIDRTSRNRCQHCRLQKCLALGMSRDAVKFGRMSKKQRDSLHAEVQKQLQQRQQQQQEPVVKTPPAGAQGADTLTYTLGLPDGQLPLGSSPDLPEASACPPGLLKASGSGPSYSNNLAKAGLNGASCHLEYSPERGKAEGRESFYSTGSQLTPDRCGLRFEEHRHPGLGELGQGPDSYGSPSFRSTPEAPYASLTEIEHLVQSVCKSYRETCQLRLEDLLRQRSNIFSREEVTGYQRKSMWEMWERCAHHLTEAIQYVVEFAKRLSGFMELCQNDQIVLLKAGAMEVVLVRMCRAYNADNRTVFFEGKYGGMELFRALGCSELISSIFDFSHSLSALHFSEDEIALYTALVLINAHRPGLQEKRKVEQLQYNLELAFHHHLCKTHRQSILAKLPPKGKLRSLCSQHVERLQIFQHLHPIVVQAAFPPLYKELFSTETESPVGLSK

HPAF-II [2] = experiment: Induction of apoptosis in human HPAF-II cells assessed as viable cells at 10 uM incubated for 48 hrs by Annexin V-FITC/PI staining based flow cytometry (reference value: 89.73 %); format: functional; settings: read-out: Activity
HPAF-II [3] = experiment: Induction of apoptosis in human HPAF-II cells assessed as late apoptotic cells at 10 uM incubated for 48 hrs by Annexin V-FITC/PI staining based flow cytometry (reference value: 1.28 %); format: functional
HPAF-II [4] = experiment: Induction of apoptosis in human HPAF-II cells assessed as necrotic cells at 1 uM incubated for 48 hrs by Annexin V-FITC/PI staining based flow cytometry (reference value: 8.09 %); format: functional
HPAF-II [5] = experiment: Induction of apoptosis in human HPAF-II cells assessed as late apoptotic cells at 0.1 uM incubated for 48 hrs by Annexin V-FITC/PI staining based flow cytometry (reference value: 1.28 %); format: functional
HPAF-II [6] = experiment: Induction of apoptosis in human HPAF-II cells assessed as necrotic cells at 0.1 uM incubated for 48 hrs by Annexin V-FITC/PI staining based flow cytometry (reference value: 8.09 %); format: functional
HPAF-II [7] = experiment: Induction of apoptosis in human HPAF-II cells assessed as necrotic cells at 0.01 uM incubated for 48 hrs by Annexin V-FITC/PI staining based flow cytometry (reference value: 8.09 %); format: functional
NCI-H23 [8] = experiment: Induction of apoptosis in human NCI-H23 cells assessed as necrotic cells at 10 uM incubated for 48 hrs by Annexin V-FITC/PI staining based flow cytometry (reference value: 0.78 %); format: functional
NCI-H23 [9] = experiment: Induction of apoptosis in human NCI-H23 cells assessed as viable cells at 1 uM incubated for 48 hrs by Annexin V-FITC/PI staining based flow cytometry (reference value: 92.16 %); format: functional; settings: read-out: Activity
NCI-H23 [10] = experiment: Induction of apoptosis in human NCI-H23 cells assessed as necrotic cells at 1 uM incubated for 48 hrs by Annexin V-FITC/PI staining based flow cytometry (reference value: 0.78 %); format: functional
NCI-H23 [11] = experiment: Induction of apoptosis in human NCI-H23 cells assessed as late apoptotic cells at 0.1 uM incubated for 48 hrs by Annexin V-FITC/PI staining based flow cytometry (reference value: 2.89 %); format: functional
NCI-H23 [12] = experiment: Induction of apoptosis in human NCI-H23 cells assessed as necrotic cells at 0.1 uM incubated for 48 hrs by Annexin V-FITC/PI staining based flow cytometry (reference value: 0.78 %); format: functional
NCI-H23 [13] = experiment: Induction of apoptosis in human NCI-H23 cells assessed as early apoptotic cells at 0.01 uM incubated for 48 hrs by Annexin V-FITC/PI staining based flow cytometry (reference value: 4.17 %); format: functional
NCI-H23 [14] = experiment: Induction of apoptosis in human NCI-H23 cells assessed as necrotic cells at 0.01 uM incubated for 48 hrs by Annexin V-FITC/PI staining based flow cytometry (reference value: 0.78 %); format: functional
A549 = experiment: Anticancer activity against human A549 cells incubated for 72 hrs; format: functional, cell-based
NCI-H1373 = experiment: Anticancer activity against human NCI-H1373 cells incubated for 72 hrs; format: functional, cell-based
NCI-H358 = experiment: Anticancer activity against human NCI-H358 cells incubated for 72 hrs; format: functional, cell-based
NCI-H23 [15] = experiment: Anticancer activity against human NCI-H23 cells incubated for 72 hrs; format: functional, cell-based
SW1573 = experiment: Anticancer activity against human SW1573 cells incubated for 72 hrs; format: functional, cell-based
MIA PaCa-2 [16] = experiment: Anticancer activity against human MIA PaCa-2 cells incubated for 72 hrs; format: functional, cell-based
HPAF-II [17] = experiment: Anticancer activity against human HPAF-II cells incubated for 72 hrs; format: functional, cell-based
PANC-1 = experiment: Anticancer activity against human PANC-1 cells incubated for 72 hrs; format: functional, cell-based
MIA PaCa-2 [18] = experiment: Induction of apoptosis in human MIA PaCa-2 cells 1 uM incubated for 48 hrs by Annexin V-FITC/PI staining based flow cytometry; format: functional, cell-based
HPAF-II [19] = experiment: Induction of apoptosis in human HPAF-II cells assessed as reduction in MCL-1 level at 0.1 to 1 uM incubated for 48 hrs by Western blot analysis; format: functional, cell-based; settings: dose 0.1-1 µM
HPAF-II [20] = experiment: Induction of apoptosis in human HPAF-II cells assessed as increase in cleaved caspase-3 level at 0.1 to 1 uM incubated for 48 hrs by Western blot analysis; format: functional, cell-based; settings: dose 0.1-1 µM
HPAF-II [21] = experiment: Downregulation of phosphorylated MEK expression in human HPAF-II cells at 0.1 to 1 uM incubated for 48 hrs by Western blot analysis; format: functional, cell-based; settings: dose 0.1-1 µM
HPAF-II [22] = experiment: Inhibition of colony formation in human HPAF-II cells harboring siROR-gamma 0.1 uM incubated for 6 to 7 days by crystal violet staining based analysis; format: functional, cell-based; settings: time 6-7 day
HPAF-II [23] = experiment: Downregulation of MEK phosphorylation level in human HPAF-II cells harboring siROR-gamma at 0.1 uM by Western blot analysis; format: functional, cell-based
[24] = AUClast in ICR mouse at 3 mg/kg, iv; format: ADME, organism-based; settings: in vivo
[25] = Volume of distribution at steady state in ICR mouse at 3 mg/kg, iv; format: ADME, organism-based; settings: in vivo, read-out: Vdss
[26] = Clearance in ICR mouse at 3 mg/kg, iv; format: ADME, organism-based; settings: in vivo
[27] = Tmax in ICR mouse at 10 mg/kg, po; format: ADME, organism-based; settings: in vivo
[28] = AUClast in ICR mouse at 10 mg/kg, po; format: ADME, organism-based; settings: in vivo
[29] = Oral bioavailability in ICR mouse at 10 mg/kg; format: ADME, organism-based; settings: in vivo
HPAF-II [30] = experiment: Antitumor activity against human HPAF-II cells xenografted in nude Balb/cA mouse assessed as tumor growth inhibition at 15 mg/kg, ip qd measured for 12 days relative to control; format: functional; parameters: scale not given: the % may be the effect or the level left; settings: time 12 day
[31] = Toxicity in nude Balb/cA mouse xenografted with human HPAF-II cells assessed as body weight loss at 15 mg/kg, ip qd measured for 12 days; format: organism-based; settings: in vivo, 288 h, time 12 day

For C=C(C)[C@@H]1CC[C@]2(C(=O)NCCCN(C)C)CC[C@]3(C)[C@H](CC[C@@H]4[C@@]5(C)CC[C@H](O)C(C)(C)[C@@H]5CC[C@]43C)[C@@H]12, the Kd [1] was 180 nM, the viability at 10 µM (HPAF-II [2]) was 5.04% and the Activity (HPAF-II [3]) was 42.77%. For the same compound, the Activity (HPAF-II [4]) was 2.06%, the Activity (HPAF-II [5]) was 12.13% and the Activity (HPAF-II [6]) was 4.85%. For the same compound, the Activity (HPAF-II [7]) was 7.52%, the Activity (NCI-H23 [8]) was 0.61% and the viability at 1 µM (NCI-H23 [9]) was 12.7%. The Activity (NCI-H23 [10]) was 1.48%, the Activity (NCI-H23 [11]) was 12.32% and the Activity (NCI-H23 [12]) was 4.71%. For the same compound, the Activity (NCI-H23 [13]) was 4.06%, the Activity (NCI-H23 [14]) was 2.81% and the Activity (A549) was “Active”. For the same compound, the Activity (NCI-H1373) was “Active”, the Activity (NCI-H358) was “Active” and the Activity (NCI-H23 [15]) was “Active”. The Activity (SW1573) was “Active”, the Activity (MIA PaCa-2 [16]) was “Active” and the Activity (HPAF-II [17]) was “Active”. For the same compound, the Activity (PANC-1) was “Active”, the Activity (MIA PaCa-2 [18]) was “Active” and the Activity (HPAF-II [19]) was “Active”. For the same compound, the Activity (HPAF-II [20]) was “Active”, the Activity (HPAF-II [21]) was “Active” and the inhibition (HPAF-II [22]) was “inactive”. For the same compound, the Activity (HPAF-II [23]) was “Active”, the AUC(0-t) [24] was 2980 ng·h/mL and the Vd [25] was 5.21 L/kg. For the same compound, the clearance [26] was 16.5 mL/min/kg, the Tmax [27] was 2 h and the AUC(0-t) [28] was 1670 ng·h/mL. For the same compound, the bioavailability [29] was 16.8%, the Activity (HPAF-II [30]) was 76% and the Activity [31] was 19%.
